Results published in patent US9605026B2, “Hydrogen-bond surrogate peptides and peptidomimetics for p53 reactivation” (New York University, priority 2013, dated 2017).

What was measured:
Format in all cases: cell-based, human
[1] = system: p53; experiment: Western blot of total and acetylated[K382] p53 in UMSCC47 cells; conditions: 24 hours; for acetylated p53 levels / p53 accumulation (total p53 level): UMSCC47, 10 μM
Text: (§1) FIG. 5A is an schematic illustration showing that CH1 has two distinct target sites. HIF1-α/p300 structures were used as guides to design helix mimetics that target site A and site B on the CH1 domain of p300. […] CH1iA (SEQ ID NO: 7) and CH1iB (SEQ ID NO: 8) were designed to mimic two helices from the C-terminal domain of HIF-1α. The peptides were locked into the helical conformation by the hydrogen bond surrogate method. FIG. 5C is a graph of p53 activity. UMSCC47 (left) and UMSCC74A (right) cells were co-transfected with a p53 Firefly luciferase reporter plasmid and a control Renilla luciferase plasmid. After 24 hours, cells were treated with control (vehicle), CH1iA (10 μM), or CH1iB (10 μM) for 24 hours. Firefly luciferase activity was normalized to Renilla luciferase activity to control for transfection efficiency. Data is normalized to control and presented as mean±SEM. *P<0.05, n=3. FIG. 5D is a western blot showing total and acetylated p53 levels. UMSCC47 (left) and UMSCC74A (right) cells were treated with control (vehicle), CH1iA (10 μM), or CH1iB (10 μM) for 24 hours. Cell lysates were immunoblotted with anti-p53 or anti-acetylated[K382]-p53 antibody. FIG. 5E is a pair of graphs of p300, p53, p21, miR-34a, and miR-200c expression. UMSCC47 (top panel) and UMSCC74A (bottom panel) cells were treated with control (vehicle), CH1iA (10 μM), or CH1iB (10 μM) for 24 hours. mRNA expression was determined using qPCR with validated TaqMan assays. Data is normalized to control cells and presented as mean±SEM. *P<0.01, control vs. CH1iB, n=3. FIG. 5F is a western blot showing HPV16 E6-p300 association. UMSCC47 cells were treated with control (vehicle), CH1iA (10 μM), or CH1iB (10 μM) for 24 hours. Cell lysates were extracted, immunoprecipitated with anti-p300 antibody, and immunoblotted with anti-E6 antibody. Cell lysates were immunoblotted with anti-E6 or anti-p300 antibody for input control. FIG. 5G is a set of graphs of cell proliferation. UMSCC47 (top left panel), UMSCC74A (top right panel), and IMR90 (human normal fibroblasts) (bottom panel) cells were treated with control (vehicle), CH1iA (10 μM), CH1iB (10 μM), cis-platinum (10 μM), CH1iA (10 μM) and cis-platinum (10 μM), or CH1iB (10 μM) and cis-platinum (10 μM) for 24, 48, or 72 hours. Data is normalized to Day 0 and presented as mean±SEM. *P<0.01, control vs. CH1iB or cis-platinum, **P<0.01 CH1iB or cis-platinum vs. CH1iB and cis-platinum, n=6.
FIG. 6A is a western blot showing total and acetylated p53 levels. UMSCC47 cells were treated with control (vehicle), CH1iB (10 μM), cis-platinum (10 μM), or CH1iB (10 μM) and cis-platinum (10 μM) for 24 hours. Cell lysates were immunoblotted with anti-p53 or anti-acetylated[K382]-p53 antibody. FIG. 6B is a graph of p53 transcriptional activity. UMSCC47 cells were co-transfected with a p53 Firefly luciferase reporter plasmid and a control Renilla luciferase plasmid. After 24 hours, cells were treated with control (vehicle), CH1iB (10 μM), cis-platinum (10 μM), or CH1iB (10 μM) and cis-platinum (10 μM) for 24 hours. Firefly luciferase activity was normalized to Renilla luciferase activity to control for transfection efficiency. Data is normalized to control and presented as mean±SEM. *P<0.01, control vs. CH1iB, cis-platinum or CH1iB+cis-platinum, **P<0.01 CH1iB or cis-platinum vs. CH1iB+cis-platinum, n=5. FIG. 6C is a graph of p300, p53, p21, miR-34a, and miR-200c expression. UMSCC47 cells were treated with control (vehicle), CH1iB (10 μM), cis-platinum (10 μM), or CH1iB (10 μM) and cis-platinum (10 μM) for 24 hours. mRNA expression was determined using qPCR with validated TaqMan assays. Data is normalized to control cells and presented as mean±SEM. *P<0.01, control vs. CH1iB, cis-platinum or CH1iB+cis-platinum, **P<0.01 CH1iB or cis-platinum vs. CH1iB+cis-platinum, n=3. FIG. 6D is a pair of graphs of apoptosis. […]

[2] = system: p53; experiment: Western blot of total and acetylated[K382] p53 in UMSCC74A cells; conditions: UMSCC74A (HPV-negative, p53 wildtype), 10 μM, 24 hours
Text: (§2) FIG. 5A is an schematic illustration showing that CH1 has two distinct target sites. HIF1-α/p300 structures were used as guides to design helix mimetics that target site A and site B on the CH1 domain of p300. […] CH1iA (SEQ ID NO: 7) and CH1iB (SEQ ID NO: 8) were designed to mimic two helices from the C-terminal domain of HIF-1α. The peptides were locked into the helical conformation by the hydrogen bond surrogate method. FIG. 5C is a graph of p53 activity. UMSCC47 (left) and UMSCC74A (right) cells were co-transfected with a p53 Firefly luciferase reporter plasmid and a control Renilla luciferase plasmid. After 24 hours, cells were treated with control (vehicle), CH1iA (10 μM), or CH1iB (10 μM) for 24 hours. Firefly luciferase activity was normalized to Renilla luciferase activity to control for transfection efficiency. Data is normalized to control and presented as mean±SEM. *P<0.05, n=3. FIG. 5D is a western blot showing total and acetylated p53 levels. UMSCC47 (left) and UMSCC74A (right) cells were treated with control (vehicle), CH1iA (10 μM), or CH1iB (10 μM) for 24 hours. Cell lysates were immunoblotted with anti-p53 or anti-acetylated[K382]-p53 antibody. […] UMSCC47 (top panel) and UMSCC74A (bottom panel) cells were treated with control (vehicle), CH1iA (10 μM), or CH1iB (10 μM) for 24 hours. mRNA expression was determined using qPCR with validated TaqMan assays. […]

[3] = system: p300, p53, and p53-regulated genes; experiment: qPCR expression of p300, p53, p21, miR-34a, miR-200c in UMSCC74A cells; conditions: 10 μM, 24 hours
Text: as §2, with “hours.” for “hours. Firefly luciferase activity was normalized to Renilla luciferase activity to control for transfection efficiency. Data is normalized to control and presented as mean±SEM. *P<0.05, n=3. FIG. 5D is a western blot showing total and acetylated p53 levels. UMSCC47 (left) and UMSCC74A (right) cells were treated with control (vehicle), CH1iA (10 μM), or CH1iB (10 μM) for 24 hours. Cell lysates were immunoblotted with anti-p53 or anti-acetylated[K382]-p53 antibody.”
Cells were extracted for total RNA using the TRIzol® reagent (Invitrogen) or TaqMan PreAmp Cells-to-CT kit (Applied Biosystems). Expression of p300, p53, p21, miR-34a and miR-200c were determined using the Applied Biosystems 7900HT Fast Real-Time PCR System with validated TaqMan gene expression assays (Applied Biosystems). p53, p300, and p21 expression were normalized to GADPH and miR-34a and miR-200c expression were normalized to RNU44 using the ΔΔCt method.

[4] = system: UMSCC74A cells; experiment: Cell proliferation (MTT) in UMSCC74A cells; conditions: for cell proliferation, single-agent: UMSCC74A (HPV-negative), 10 μM; for effect on efficacy of cis-platinum on proliferation: UMSCC74A, 10 μM with cis-platinum 10 μM
Text: as §1, with “Data is normalized to Day 0 and presented as mean±SEM. *P<0.01, control vs. CH1iB or cis-platinum, **P<0.01 CH1iB or cis-platinum vs. CH1iB and cis-platinum, n=6.” left out
Cell proliferation was assessed using the MTT reagent (Roche Molecular Biochemicals, Nutley, N.J.) to detect metabolic active cells. Absorbance was measured at 570 nm in the Spectra Max 190 ELISA reader (Molecular Devices, Sunnyvale, Calif.) after overnight incubation. […] Apoptotic cells were analyzed using BD FACS Calibur (BD Biosciences Corporation, Franklin Lakes, N.J.) at The Ohio State University Comprehensive Cancer Center Analytical Cytometry Core.

[5] = UMSCC47, CH1iB 10 μM with cis-platinum 10 μM

Row | Substance | acetylated p53 levels [1] | p53 accumulation (total p53 level) [1] | effect of cis-platinum on p53 accumulation [1, 5] | effect of cis-platinum on p53 acetylation [1, 5] | p53 levels [2] | Expression of p300, p53, and p53-regulated genes [3] | cell proliferation, single-agent [4] | effect on efficacy of cis-platinum on proliferation [4]
1 | XELA*RALDQ-NH2 (ELXRALDQ; HBS: 4-pentenoic acid, N-allylalanine; C-terminal amide; CH1iB) [X 4-pentenoic acid, A* N-allylalanine] | enhanced | enhanced | potentiated | potentiated | did not modulate | unchanged | no effect | did not augment
2 | XTAA*DCEYNAR (TAXDCEYNAR; HBS: 4-pentenoic acid, N-allylalanine; CH1iA) [X 4-pentenoic acid, A* N-allylalanine, reference compound] | no effect | no effect | – | – | did not modulate | unchanged | no effect | did not augment
